Data set [1] deals with electric eel AChE. More on the design: method as in PMID 31669851. Conditions: cited from earlier work.
In data set [2] the target is T1, human histamine H4 receptor (Homo sapiens, UniProt Q9H3N8).
T1 construct: expressed in transfected cells; host or cells: Sf9
The data set is described as follows: [3H]Histamine radioligand binding, Sf9 cells transiently expressing hH4R. Conditions: for Selectivity Ki (H4R)/Ki (H3R): hH3R over hH4R. As to the method: (§1) Radioligand binding studies, using CHO-K1 cells stably expressing the H1R or Sf9 cells transiently expressing the H4R were performed as described previously. [^3H]Pyrilamine (H1R) and [^3H]histamine (H4R) were used as radiolignads. Affinities were determined using at least five different concentrations of tested compounds in triplicate independent experiments.

Data set [3] deals with T2, human histamine H1 receptor (Homo sapiens, UniProt P35367).
T2 construct: expressed in transfected cells; host or cells: CHO-K1
Put plainly: [3H]Pyrilamine radioligand binding, CHO-K1 cells stably expressing hH1R. Conditions: for Selectivity Ki (H1R)/Ki (H3R): hH3R over hH1R. As for the experimental part: as §1

In data set [4] the test system is neuroblastoma SH-SY5Y cells. Conditions: 1 µM, 24 h pre-treatment; H2O2 (300 μM) and okadaic acid (50 nM); ref 2nd International Conference on Neuroprotection by Drugs, Nutraceuticals and Physical Activity, 9–10 Dec 2021; cited from earlier work.
For data set [5], the system named is BV-2 cells. Put plainly: MTS cell viability assay. Conditions: Mus musculus, 24 h exposure, mean ± SD, read-out: IC50 (inhibition of cell viability). Format: cell-based, murine. As for the experimental part:
The murine microglial BV-2 cell line was purchased from the Interlab Cell Line Collection (ICLC) cell bank (Genova, Italy). The BV-2 cells were cultured in DMEM/F12 medium (Lonza, BioWhittaker, Walkersville, MD USA, 12-719F) containing 10% of heat-inactivated fetal bovine serum (FBS, Gibco, 10,500–064) in a humidified incubator containing 95% air and 5% CO2 at 37 °C. BV-2 cells were used for experiments at passages 3 to 11. In all experiments, the concentration of FBS was reduced to 5%.
BV-2 cells (2 × 10^4 cells/100 μl/well) were cultured in transparent 96-well plates (TPP, Trasadingen, Switzerland) in DMEM/F12 supplemented with 5% FBS in the presence of dimethylsulfoxide (DMSO ≤ 0.1%, vehicle control, Veh) or increasing doses of tested compounds (0.78 × 10^–6 – 50 × 10^–6 M). Compound treatment was performed for 24 h. After the incubation time, cell viability was examined using an MTS-based [3-(4,5-dimethylthiazol-2-yl)-5-(3-carboxymethoxyphenyl)-2-(4-sulfophenyl)-2 H tetrazolium] CellTiter96® AQueous One Solution Cell Proliferation Assay (Promega, Madison, USA) following the manufacturer’s protocol. Briefly, 20 μl of MTS solution was pipetted into each well containing 100 μl of culture or culture medium without cells (blank control), mixed well and incubated at 37 °C for 55 min. After the appropriate time, the absorbance was measured at 490 nm using the EnSpire microplate reader (PerkinElmer, Massachusetts, USA). IC50 values were calculated with non-linear regression fit to a sigmoidal dose–response curve (log of compound concentration versus normalized response) using GraphPad Prism (v. 4.0.3).
(§2) To establish an experimental model of neuroinflammation in vitro, BV-2 cells were cultured in a 96-well plate (2 × 10^4 cells/200 μl/per well) and a 24-well plate (15 × 10^4 cells/500 μl/well) for the MTS assay and the Griess assay or the RT-qPCR experiment, respectively. BV-2 cells were treated for 24 h, 45 h and 69 h with the increasing concentration of LPS (Sigma-Aldrich, Saint Louis, MO, USA, L4391): 0.001; 0.01; 0.1; 1 [μg/ml]. Following LPS stimulation, at each time point, 100 μl of culture medium from each sample was transferred to another plate and mixed with an equal volume of Griess reagent. Simultaneously, on the plate with cells, cell viability was assessed by adding 20 μl of MTS reagent. The cells cultured on a 24-well plate were used for assessing the expression levels of proinflammatory cytokines (IL-1β, IL-6, TNF-α) by RT-qPCR.
To avoid the toxic effect of H3R ligands in subsequent studies, an MTS assay was performed to investigate cell viability. BV-2 cells were cultured for 24 h in the presence of an increasing concentration of compounds E243 and IIIa–IIIc (twofold dilutions covered the range from 0.78 × 10^–6 to 50 × 10^–6 M). […]
(In general: Tetrazolium dyes change colour on reduction, which living cells bring about.)

Data set [6] deals with human AChE. Also noted: method as in PMID 31669851. Conditions: cited from earlier work.
In data set [7] the test system is equine BuChE. Also noted: method as in PMID 31669851. Conditions: cited from earlier work.
Data set [8] relates to BV-2 cells. Put plainly: Griess assay (NO/nitrite level) in LPS-treated BV-2 cells. Format: cell-based, murine. Conditions: 6.25 μM, 1 h pretreatment, then 1 μg/ml LPS for 24 h. As for the experimental part: The Griess assay is a colorimetric assay to measure the levels of nitrite (NO2^−) which is one of the primary and stable metabolites of NO. Griess reagent (Sigma-Aldrich, Saint Louis, MO, USA, G4410) was freshly prepared according to the manufacturer's instructions, that is, 1 g was dissolved in ultrapure water and mixed by inversion for about 4 min. For measuring nitric oxide, after an appropriate incubation time, 100 μl of culture medium was transferred to a transparent 96-well plate and mixed with the same volume of Griess reagent. The plate was incubated for 15 min at room temperature and the absorbance was read at 540 nm using the EnSpire microplate reader (PerkinElmer, Massachusetts, USA). Data were analysed by direct comparison based on the average absorbance of LPS treatment, compound treatment or co-treatment with LPS, performed by normalizing treated cells (compound alone or co-treatment with LPS) to LPS-treated cells set as 100%.
as §2
Fig. 6 The effect of the compounds tested (E243 and IIIa–IIIc) on nitric oxide (NO) production in BV-2 cells assessed by the Griess assay. BV-2 cells were pretreated for 1 h with indicated compounds at the concentration of 6.25 μM, followed by stimulation with 1 μg/ml LPS for 24 h. Data are expressed as mean ± SEM of two independent experiments, each of which consisted of eight replicates per treatment group and is expressed as a percentage of NO production versus cells treated with LPS (set at 100%). […] Data indicated with ***p < 0.001 (versus vehicle-treated cells) reflect statistically significant differences between the control and experimental groups
A general note: Nitrite, measured by Griess reagent, commonly stands in for NO production.

In data set [9] the target is T3, human H3 receptor (Homo sapiens, UniProt Q9Y5N1).
T3 construct: expressed in transfected cells; host or cells: CHO-K1
Put plainly: [3H]Nα-methylhistamine radioligand binding, CHO-K1 cells stably expressing hH3R. As to the method: Radioligand binding studies were conducted using CHO-K1 cells stably transfected with the human H3 receptor as we described previously. All assays were carried out in duplicates. [^3H]-N-α-methylhistamine was used as radioligand and (R)(-)-α-methylhistamine was used to define nonspecific binding. Radioactivity was counted in MicroBeta2 scintillation counter (PerkinElmer). Data were fitted to a one-site curve-fitting equation with Prism 6 (GraphPad Software) and Ki values were estimated from the Cheng − Prusoff equation.
Compounds IIIa–IIIc were tested for affinity for human H3R (hH3R) in a radioligand binding assay with N^α-methylhistamine as a radioligand in CHO K1 cells stably expressing hH3R. Results are presented as Ki values with SEM (Table 2). […] However, it is still a very active compound. The affinity for hH3R (stably expressed in HEK293 cells) of compound E243 was recently described.

In data set [10] the test system is BV-2 cells. The data set is described as follows: ELISA of pro-inflammatory cytokines released by LPS-activated BV-2 cells. Format: cell-based, murine. Conditions: for Inhibitory activity on pro-inflammatory cytokine production: LPS-stimulated BV-2 cells, data not shown. As for the experimental part: The concentrations of IL-1β, IL-6, TNF-α, the main inflammatory cytokines, were analysed using commercial ELISA kits (IL-6 ELISA kit, ADI-900–045, TNF-α ELISA kit, ADI-900–047, Enzo, Mouse IL-1 beta ELISA kit, Invitrogen) according to the manufacturer’s instructions. Briefly, at the end of 24 h of incubation with tested compounds, cell culture plates were centrifuged to remove cell debris from the supernatants. Culture medium was collected in Eppendorf tubes and frozen at −80 °C until further analysis.
Fig. 8 Effect of compound IIIc on the production of proinflammatory cytokines by LPS-activated BV-2 cells.

Data set [11] deals with BV-2 cells. The data set is described as follows: RT-qPCR of pro-inflammatory cytokine mRNA in LPS-activated BV-2 cells. Conditions: 6.25 μM, 1 h pretreatment, LPS 1 μg/ml 24 h; on average. A general note: In qPCR the cycle at which signal appears reflects the starting amount.
The mark [12] stands for this setting: 6.25 μM, 1 h pretreatment, LPS 1 μg/ml 24 h.

SMILES strings stand for the structures.

T1 sequence (Q9H3N8 whole entry): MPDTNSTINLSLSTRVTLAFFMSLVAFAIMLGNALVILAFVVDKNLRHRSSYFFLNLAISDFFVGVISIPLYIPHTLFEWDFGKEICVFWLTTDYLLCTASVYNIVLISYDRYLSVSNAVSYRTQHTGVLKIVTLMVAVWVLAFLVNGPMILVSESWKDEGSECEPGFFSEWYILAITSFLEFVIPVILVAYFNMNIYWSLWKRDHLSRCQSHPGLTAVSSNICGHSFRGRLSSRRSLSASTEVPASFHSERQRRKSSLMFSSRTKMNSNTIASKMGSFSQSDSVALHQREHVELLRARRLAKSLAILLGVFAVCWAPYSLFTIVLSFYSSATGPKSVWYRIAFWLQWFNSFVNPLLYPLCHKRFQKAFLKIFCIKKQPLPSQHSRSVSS
T3 sequence (Q9Y5N1 whole entry): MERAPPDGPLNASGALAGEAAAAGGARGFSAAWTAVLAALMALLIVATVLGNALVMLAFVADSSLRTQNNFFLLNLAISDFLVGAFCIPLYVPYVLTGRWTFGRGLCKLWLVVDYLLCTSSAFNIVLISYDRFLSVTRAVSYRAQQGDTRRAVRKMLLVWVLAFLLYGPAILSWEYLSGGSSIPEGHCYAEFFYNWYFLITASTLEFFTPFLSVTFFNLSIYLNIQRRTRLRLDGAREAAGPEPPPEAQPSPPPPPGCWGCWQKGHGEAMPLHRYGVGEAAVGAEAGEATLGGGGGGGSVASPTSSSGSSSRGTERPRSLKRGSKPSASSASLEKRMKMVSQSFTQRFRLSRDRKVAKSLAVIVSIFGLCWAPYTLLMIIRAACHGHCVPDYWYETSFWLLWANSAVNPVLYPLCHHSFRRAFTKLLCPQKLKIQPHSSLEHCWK
T2 sequence (P35367 whole entry): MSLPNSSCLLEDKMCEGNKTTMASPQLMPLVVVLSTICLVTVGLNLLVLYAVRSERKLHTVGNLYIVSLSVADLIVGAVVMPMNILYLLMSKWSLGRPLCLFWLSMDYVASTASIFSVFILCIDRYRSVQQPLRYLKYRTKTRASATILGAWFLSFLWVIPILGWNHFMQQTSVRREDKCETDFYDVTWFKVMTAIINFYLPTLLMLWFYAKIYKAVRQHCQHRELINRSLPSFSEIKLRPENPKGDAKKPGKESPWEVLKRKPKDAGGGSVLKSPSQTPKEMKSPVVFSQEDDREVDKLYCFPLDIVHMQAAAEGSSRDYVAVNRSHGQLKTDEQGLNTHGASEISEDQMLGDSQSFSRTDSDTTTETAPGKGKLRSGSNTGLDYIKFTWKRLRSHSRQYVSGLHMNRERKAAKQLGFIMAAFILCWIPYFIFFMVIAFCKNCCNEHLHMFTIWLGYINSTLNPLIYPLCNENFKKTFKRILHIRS

As usually defined, the IC50 is the point on the concentration scale where inhibition reaches its midpoint. One may read the Ki as a dissociation constant, usually derived from enzyme kinetics or from competition with a known ligand. Lower therefore signals higher affinity. In the case of `Cc1ccc2oc(-c3ccc(OCCCCCCN4CCCCC4)cc3)cc(=O)c2c1` [Compound E243], the IC50 in data set [1] is 501 nM; in data set [5], 53500 ± 5560 nM; in [6], 360 nM; in [7] it was 758 nM. Moreover, the inhibition constant (Ki) was 4440 nM in [2] and 1310 ± 128 nM in data set [3]. The “Selectivity Ki (H4R)/Ki (H3R)” value in data set [2] is given as more than 19. For the same molecule, the “Selectivity Ki (H1R)/Ki (H3R)” value in data set [3] is listed as more than 5. In [4], the “Prevention of ROS production, times compared to neurotoxin-treated cells” value is approximately 2 times. For the same molecule, the “Reduction of NO level compared to LPS treated cells” value (“Reduction of NO level” below) in data set [8] is reported as approximately 30%.

What is called melting point is the temperature of the solid-liquid transition. In turn, `COc1ccc(/C=C/C(=O)c2ccc(OCCCN3CCCCC3)cc2)cc1.Cl` [IIIa, (E)-3-(4-Methoxyphenyl)-1-(4-(3-(piperidin-1-yl)propoxy)phenyl)prop-2-en-1-one hydrogen chloride] registered a melting point of 174 to 177 °C. Besides, in [5], the IC50 was determined as 21200 ± 1980 nM. The molecule also displayed a Ki in data set [9] of 14 ± 0.2 nM. The “Reduction of NO level” value in [8] was approximately 30%. In addition, in data set [10], the “Inhibitory activity on pro-inflammatory cytokine production” value is reported as “have not shown inhibitory activity”.

In the case of `COc1ccc(/C=C/C(=O)c2ccc(OCCCN3CCCCC3)cc2)cc1OC.Cl` [IIIb, (E)-3-(3,4-Dimethoxyphenyl)-1-(4-(3-(piperidin-1-yl)propoxy)phenyl)prop-2-en-1-one hydrogen chloride], the melting point lay in the range of 173 to 176 °C. In addition, in [2], the Ki is 12500 nM and the “Selectivity Ki (H4R)/Ki (H3R)” value was more than 1300. Further, in data set [3], the Ki worked out at 1080 nM and the “Selectivity Ki (H1R)/Ki (H3R)” value is recorded as more than 112. In data set [5], the IC50 was 26700 ± 3480 nM. Also, in data set [9], the Ki was 9.6 ± 0.2 nM. For the same molecule, the “Reduction of NO level” value in [8] is approximately 30%. The “Inhibitory activity on pro-inflammatory cytokine production” value in data set [10] was “have not shown inhibitory activity”.

Turning to `COc1cc(/C=C/C(=O)c2ccc(OCCCN3CCCCC3)cc2)cc(OC)c1OC.Cl` [IIIc, (E)-3-(3,4,5-Trimethoxyphenyl)-1-(4-(3-(piperidin-1-yl)propoxy)phenyl)prop-2-en-1-one hydrogen chloride], in [2], the Ki stood at 2820 nM and the “Selectivity Ki (H4R)/Ki (H3R)” value is given as more than 117. In data set [11], the “IL-1β mRNA level, times lower than induced by LPS alone” value is recorded as approximately 2 times and the “TNF-α mRNA level, times lower than induced by LPS alone” value was approximately 3 times. Further, in data set [3], the Ki was 2700 nM and the “Selectivity Ki (H1R)/Ki (H3R)” value is more than 112. In [5], the half-inhibitory concentration (IC50) came to 11300 ± 3260 nM. For the same molecule, in [9], the Ki stood at 24 ± 1.1 nM. The “Reduction of NO level” value in data set [8] is on record as 61%. For the same molecule, in data set [10] (setting [12]), the “Release of IL-1β compared to LPS-stimulated BV-2 cells” value is reported as “significantly lower”, the “Release of IL-6 compared to LPS-stimulated BV-2 cells” value is given as “significantly lower” and the “Release of TNF-α compared to LPS-stimulated BV-2 cells” value is reported as “significantly lower”.
